Earlier results in US7419995B2, “N-substituted benzimidazoyl c-Kit inhibitors and combinatorial benzimidazole library” (OSI Pharmaceuticals, Inc., priority 2004, dated 2008).
Where a name gives a salt, the structure may show the parent alone.

Test system: MO7e human leukemia cells

Compound: Cc1ccc(NC(=O)c2ccc(CN3CCN(C)CC3)cc2)cc1Nc1nccc(-c2cccnc2)n1 [Gleevec, imatinib mesylate]
- GM-CSF stimulated growth of MO7e cells (GM-CSF stimulated): not affected
- Kit ligand-stimulated growth of MO7e cells (Kit ligand-stimulated): inhibited
- apoptosis of MO7e cells (Kit ligand-stimulated conditions): induces apoptosis
